Test results as given in US7537906B2, “Apoptosis inducer and method of screening for a substance inhibiting acylated homoserine lactone” (priority 2003, dated 2009).

Key:
[1] = system: CaCo-2 cells; test: Evaluation of apoptosis by DNA fragmentation (DNA ladder); format: cell-based, human; conditions: CaCo-2 cells cultured for 12 hours, 0-100 μM
Description: 5×10^6 CaCo-2 cells were inoculated per 15 cm dish (NUNC), washed twice with PBS (-), and then cultured in a serum-free DMEM medium containing 1% NEAA for 24 hours. N-(3-oxododecanoyl)-L-homoserine lactone was added at each concentration (1 μM to 100 μM), followed by 12 hours of culture. Subsequently, the supernatant and the cells removed from the dish using TE were centrifuged at room temperature at 800 rpm for 5 minutes, and the supernatant was removed. The cells were suspended with 300 μl of PBS (-), and then the suspension was centrifuged again at 4° C. at 2500 rpm for 5 minutes, and the supernatant was removed. The cells were lysed by the addition of 300 μl of a cytolysis buffer [10 mM Tris-HCl (pH 7.4), 10 mM EDTA (pH 8.0), 0.5% Triton X-100], and then allowed to stand on ice for 10 minutes, thereby extracting DNA fragments. The extract was centrifuged at 4° C. at 14000 rpm for 10 minutes. RNase A was added to the obtained supernatant, and then incubation was carried out at 37° C. for 1 hour. Proteinase K was further added, and then incubation was carried out at 50° C. for 30 minutes. The extract of the DNA fragments was concentrated by ethanol precipitation, and then electrophoresis was carried out using 2% agarose gel. After the gel was stained with ethidium bromide, DNA fragmentation was detected under a UV transilluminator.

[2] = system: IL-8; conditions: human alveolar cells; cited from earlier work
[3] = system: Akt; test: Akt activity (phospho-Akt) by Western blot in CaCo-2 cells; format: cell-based, human; conditions: stimulation at 10 μM
[4] = system: ERK; test: MAP kinase activity by Western blot in CaCo-2 cells: phosphorylated ERK; format: cell-based, human
Description: A CaCo-2 carcinoma cell line of human colon cancer was purchased from American Type Culture Collection (ATCC), and cultured at 37° C. in the presence of 5% CO2 using a DMEM medium containing 10% FCS, 1% NEAA and 1% P/S (100 units/ml penicillin and 100 μg/ml streptomycin).
6×10^5 CaCo-2 cells were inoculated per dish using 6 cm dishes (NUNC), washed twice with phosphate buffered saline (PBS) (-), and then cultured in a serum-free DMEM medium containing 1% NEAA for 24 hours. Subsequently, at a final concentration of 100 μM, homoserine lactone hydrochloride and N-(3-oxododecanoyl)-L-homoserine lactone were each added, and then each solution was allowed to react for 10 minutes. Furthermore, purified acylated homoserine lactone used herein had been dissolved in DMSO in a concentration 400 times higher than the target final concentration, and then subjected to filter sterilization (φ 0.22 μm). As a control, DMSO with a final concentration of 0.25% was used. In addition, α-tubulin was used as an internal standard.
After reaction, the product was washed twice with cold PBS (-), and then frozen at −80° C. The cells were thawed on ice. 200 μl of a lysis buffer (50 mM HEPES, pH 7.5, 50 mM NaCl, 1 mM EDTA, 1.5 mM MgCl2, 1% Triton X-100, 10% glycerin, 10 mM sodium pyrophosphate, 1 mM Na3VO4, 100 mM NaF, 1 mM PMSF, 10 μg/ml aprotinin and 10 μg/ml leupeptin) was added to the cells, and then the cells were scraped off using a scraper. The cells were allowed to stand on ice for 20 minutes, and then centrifuged at 14000 rpm at 4° C. for 15 minutes, thereby collecting the supernatant. Concentration of the collected protein was measured, and then the protein equivalent to 50 μg was subjected to SDS-PAGE. After electrophoresis, the product was blotted on a PVDF membrane. When phosphorylated ERK, JNK, p38 and Akt were measured, blocking was carried out with 0.1% Tween 20 (TBS-T) containing 5% skim milk/Tris-buffered saline. As primary antibodies, an anti-phospho-p44/42 MAP kinase antibody, an anti-phospho-SAPK/JNK antibody, an anti-phospho-p38 MAP kinase antibody, and an anti-phospho-Akt ([…]) antibody were each used. As a secondary antibody, an HRP-labeled anti-rabbit IgG antibody was used. For the α-tubulin used as an internal standard, blocking was carried out with 5% bovine serum albumin (BSA)/TBS-T, and an anti-α-tubulin (Ab-1) antibody and an HRP-labeled anti-mouse IgG antibody were used as a primary antibody and a secondary antibody, respectively. For band detection, Renaissance™ Western Blot Chemiluminescence […] Reagent Plus (NEN) or Western Blotting Luminol Reagent (SANTA CRUZ BIOTECHNOLOGY) was used.
After cell culture, MAP kinase activity and Akt activity were analyzed by Western blot in a manner similar to that used in (1), except that N-(3-oxododecanoyl)-L-homoserine lactones in final concentrations of 0 μM (0.25% DMSO), 1 μM, 10 μM, 30 μM and 100 μM were each added and each solution was allowed to react for 10 minutes (FIG. 8).
After cell culture, N-(3-oxododecanoyl)-L-homoserine lactone with final concentrations of 30 μM and 100 μM were added. For each case, MAP kinase activity and Akt activity were measured by Western blot in a manner similar to that in (1), except for carrying out stimulation with acylated homoserine lactone in a short time course of 0, 5, 10, 30 and 60 minutes (FIG. 11), and in a long time course of 0, 10 minutes, 60 minutes, 2 hours, 4 hours, 6 hours, 8 hours and 10 hours (FIG. 12). In the case of stimulation at 30 μM, both ERK and p38 activities increased with a peak at 10 minutes. However, while ERK activity returned to the base level within 30 minutes, p38 activity lasted until 4 hours after stimulation. The inhibition of Akt activity in the case of stimulation at 30 μM peaked at 5 minutes and lasted until 60 minutes after stimulation, and returned to the base level within 2 hours. ERK activation took place with two steps in the case of stimulation at 100 μM. […]

[5] = system: TNF-α; conditions: mouse macrophage culture system; cited from earlier work

For `CCCCCCCCCC(=O)CC(=O)N[C@H]1CCOC1=O` [N-(3-oxododecanoyl)-L-homoserine lactone], the “concentration at which the DNA ladder was observed” value [1] is given as ≥ 30 µM, the IL-8 production [2] is given as “stimulates” and the “inhibition of Akt activity lasted until (after stimulation)” value [3] is given as 6 h. It also gave an ERK activity increase ([4]; 10 μM, 10 minutes) of 1.5 times, an ERK activity increase ([4]; 30 μM, 10 minutes) of 7.7 times and an ERK activity increase ([4]; 100 μM, 10 minutes) of 9.8 times. For the same compound, the “activation of ERK” value ([4]; 100 μM, 10 minutes) was “promoted”, the “concentration at which levels of phosphorylated ERK significantly increased” value ([4]; 10 minutes) was ≥ 10 µM and the “time for ERK activity to return to the base level” value ([4]; stimulation at 30 μM) was ≤ 30 min. The “time of peak ERK activity” value ([4]; stimulation at 30 μM) was 10 min, the “time at which ERK activity began to increase, second step” value ([4]; stimulation at 100 μM) was 4 h and the “time for ERK activity to return to the base level, first step” value ([4]; stimulation at 100 μM) was ≤ 2 h. For the same compound, the “time for ERK activity to return to the base level, second step” value ([4]; stimulation at 100 μM) was ≤ 10 h, the “time of peak ERK activity, first step” value ([4]; stimulation at 100 μM) was 5 min and the “time of peak ERK activity, second step” value ([4]; stimulation at 100 μM) was 8 h. The TNF-α production [5] was “promotes”.
